Data set [1] deals with nausea and vomiting. The conditions noted are these: anti-emetic; cited from earlier work.
For data set [2] the following is noted: Merck Index, 12th Ed, 984; cited from earlier work.
Data set [3] in a line: physchem. The settings on record: 25 °C, pH 3, aqueous buffer, thermodynamic from solid, aqueous solubility of meclizine at pH 3.0. As for the experimental part:
Five HPBCD and five SBECD solutions in 0.5 M citric acid buffer (pH of 3.0) are prepared, with HPBCD and SBECD concentrations of […]. 3 ml of the various buffered HPBCD and SBECD solutions are placed in 4 ml vials. 75-100 mg meclizine is added to each vial, such that excess meclizine is provided. The vials are sealed and are shaken on an orbital shaker for 24 hours at 200 rpm and 25° C. Following the shaking, the vials are filtered through 0.45 μm filters to remove any excess solute. The remaining solution is assayed by HPLC for meclizine content.

Data set [4] can be described thus: physchem. The settings on record: 25 °C, pH 4, aqueous buffer, thermodynamic from solid, aqueous solubility of meclizine at pH 4.0. As for the experimental part: Five HPBCD and five SBECD solutions in 0.5 M citric acid buffer (pH of 4.0) are prepared, with HPBCD and SBECD concentrations of 0; 50; 100; 150 and 200 mg/ml. 3 ml of the various buffered HPBCD and SBECD solutions are placed in 4 ml vials. 50-100 mg meclizine is added to each vial, such that excess meclizine is available. The vials are sealed and are shaken on an orbital shaker for 24 hours at 200 rpm and 25° C. Following the shaking, the vials are filtered through 0.45 μm filters to remove any excess solute. The remaining solution is assayed by HPLC for meclizine content.

The nature of data set [5]: Solubility of meclizine with cyclodextrins in ddH2O, HPLC. Format: physicochemical. The settings on record: alpha-CD 0-100 mg/ml, gamma-CD, HPBCD and SBECD at 200 mg/ml versus no CD. As to the method:
FIG. 1A depicts solubility data of meclizine complexed with non-chemically modified cyclodextrins (α-CD at 0-100 mg/ml, γ-CD at 200 mg/ml), chemically modified cyclodextrins (HPBCD and SBECD) at 200 mg/ml, and with no CD complexation in ddH2O. Solutions were prepared by adding excess meclizine to ddH2O samples with varying quantities of the different cyclodextrins. These samples were shaken for 24 hours at 200 rpm. Following the shaking, the vial contents were filtered through 0.45 μm filters to remove any excess solute. The remaining solution was assayed by HPLC for meclizine content.

Data set [6] in a line: Aqueous solubility of meclizine versus pH, 0.1 M citric acid buffer and ddH2O, HPLC. The data set is classed as physicochemical. The settings on record: for solubility at 24 h: thermodynamic from solid. As to the method: Citric acid (0.1M) buffer solutions are prepared with pH's of 1.0; 2.0; 3.0; 4.0, and 5.0 in ddH2O (de-oxygenated water by purging with nitrogen gas). 2 ml of each buffer are placed in 4 ml vials and 2 ml ddH2O is placed in a 4 ml vial. 20 mg meclizine HCl is added to each vial. The vials are sealed and are shaken on an orbital shaker for 24 hours at 200 rpm. Following the shaking, the vial contents are filtered through 0.45 μm filters to remove any excess solute. The remaining solution is assayed by HPLC for meclizine content.

A short description of data set [7]: pH-dependent solubility of meclizine cyclodextrin complexes in 0.5 M citric buffer. The data set is classed as physicochemical. The settings on record: HPBCD 200 mg/ml, above pH of about 5, compared with non-chemically modified CDs.

≈ marks a conversion by molar mass, not a printed value.

These results are taken from patent US8293749B2, “Injectable meclizine formulations and methods” (Genebiology, Inc., priority 2007, dated 2012).

As usually defined, the solubility is the concentration that dissolves in the medium under given conditions.

With `CN1CCN(C(c2ccccc2)c2ccccc2)CC1` [cyclizine], the duration of action in data set [1] was 1 to 2 h.
On to `Cc1cccc(CN2CCN(C(c3ccccc3)c3ccc(Cl)cc3)CC2)c1.Cl.Cl` (stereo not shown) [meclizine HCl, 1-(4-chlorobenzhydryl)-4-(3-methylbenzyl)-piperazine dihydrochloride], for which the water solubility in data set [2] is on record as 0.1 g/100 ml.
In the case of `Cc1cccc(CN2CCN(C(c3ccccc3)c3ccc(Cl)cc3)CC2)c1` (stereo not shown) [meclizine, 1-(4-chlorobenzhydryl)-4-(3-methylbenzyl)-piperazine], the solubility at 24 h in data set [3] was ~300 µg/mL (≈ 767 µM); in data set [4] it was ~10 µg/mL (≈ 25.6 µM); in data set [6] (aqueous buffer, 0.1 M citric acid buffer, pH 1.0, shaken 24 hours, read-out: aqueous solubility of meclizine) it was ~1500 µg/mL (≈ 3840 µM); in data set [6] (ddH2O (de-oxygenated water), pH 2, water, ddH2O, measured pH of about 2.0, shaken 24 hours, read-out: aqueous solubility of meclizine in ddH2O), ~3800 µg/mL (≈ 9720 µM). Besides, the duration of action result in data set [1] is given as “up to 24 hours”. Further, in data set [5], the “solubility of meclizine with cyclodextrins” value was “improved solubility”. Besides, the “aqueous solubility of meclizine” value in data set [6] (0.1 M citric acid buffer, about pH 5.0, shaken 24 hours) is on record as “below the limit of detection”. The “solubility of meclizine in HPBCD at higher pH” value in data set [7] is given as “improved solubility”.
